Measured values as given in patent US11814519B2, “Nitric oxide-releasing 3D-printing compositions and uses thereof” (Virginia Commonwealth University, priority 2020, dated 2023).

Experiments:
[1] = Solubility of the NO donor in solvents and in the silicone ink; format: physicochemical; settings: silicone ink ingredients
[2] = cited from earlier work
[3] = Optical images of a thin printed layer of donor-loaded silicone rubber soaked in phosphate buffered saline-EDTA (dissolution of donor particles); format: physicochemical; settings: thin printed layer soaked in PBSE
Description: FIG. 4A-C is optical images of a thin layer of S-nitroso-N-acetylpenicillamine-doped silicone rubber before soaking (A) and after 24 h (B) and 48 h (C) of soaking in phosphate buffered saline-EDTA.
FIG. 7A-C is bright-field optical images of a thin layer of S-nitrosoglutathione-loaded silicon rubber before and after soaking in phosphate buffered saline-EDTA.

CC(=O)N[C@H](C(=O)O)C(C)(C)SN=O (racemic) [SNAP, S-nitroso-N-acetylpenicillamine]
solubility in the silicone rubber ink [1]: not dissolved in the ink ingredients | solvents in which the donor is soluble [2]: most soluble in organic solvents such as methanol and tetrahydrofuran | time required for dissolution of donor particles in the thin printed layer ([3]; optical images): 3 days

N[C@@H](CCC(=O)N[C@@H](CSN=O)C(=O)NCC(=O)O)C(=O)O [GSNO, S-nitrosoglutathione]
solubility in the silicone rubber ink [1]: not soluble | solvents in which the donor is soluble [2]: only appreciably dissolved in water and DMSO | water solubility relative to SNAP ([2]; water): much higher | time for dissolution of donor particles in the thin printed layer ([3]; optical images (FIG. 7)): dissolved within a day
